Assay results published in article PMC7926627, “Fine-Tuning the Biological Profile of Multitarget Mitochondriotropic Antioxidants for Neurodegenerative Diseases” (Antioxidants, 2021).
“And” between values parts separate entries of the source, which are not always exact repeats. Equal entries are not always repeated. Where two headings read alike, the source gives them in different places. Marks after values point to notes of the source that are not given here.

Columns and labels:
[1] = target: T1, hMAO-A (Homo sapiens, UniProt P21397); assay: hMAO-A inhibition, kynuramine substrate; assay type: biochemical
T1 construct: purchased Sigma Aldrich; host or cells: insect cells (BTI-TN-5B1-4), baculovirus
T1 sequence (P21397 1-527): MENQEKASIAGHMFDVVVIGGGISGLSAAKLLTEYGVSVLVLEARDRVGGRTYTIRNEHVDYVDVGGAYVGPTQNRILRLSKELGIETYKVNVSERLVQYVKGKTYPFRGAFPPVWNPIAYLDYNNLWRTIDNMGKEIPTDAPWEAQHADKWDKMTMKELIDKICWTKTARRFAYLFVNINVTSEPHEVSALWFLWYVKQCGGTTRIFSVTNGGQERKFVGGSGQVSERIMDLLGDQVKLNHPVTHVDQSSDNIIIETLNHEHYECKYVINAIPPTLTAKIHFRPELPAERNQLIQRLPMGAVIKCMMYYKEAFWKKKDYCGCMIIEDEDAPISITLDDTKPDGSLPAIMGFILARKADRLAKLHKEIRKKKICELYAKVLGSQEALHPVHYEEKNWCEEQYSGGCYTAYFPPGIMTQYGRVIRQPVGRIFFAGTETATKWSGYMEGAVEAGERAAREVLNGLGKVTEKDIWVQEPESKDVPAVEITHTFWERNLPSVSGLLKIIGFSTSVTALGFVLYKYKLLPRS
Description: (§1) The inhibitory activity of lipophilic TPP^+ cations on hMAO-A and hMAO-B was studied using an experimental protocol described elsewhere [29, 40]
(§2) Evaluation of human monoamine oxidase (hMAO) inhibitory activity The human monoamine oxidase (hMAO) inhibitory outline was assessed in microsomal MAO isoforms prepared from insect cells (BTI-TN-5B1-4) infected with recombinant baculovirus containing cDNA inserts for hMAO-A or hMAO-B an d by measuring the enzymatic conversion rates of kynuramine into 4-hydroxyquinoline. The appropriate amounts of hMAO-A and hMAO-B were adjusted to obtain, in our experimental conditions, the same maximum
(§3) All assays were performed in sodium phosphate buffer solution 50 mM pH 7.4.
(§4) The compounds under study and reference inhibitors were pre-incubated at 37 °C for 10
(§5) concentration: 2×Km) in 96-well microplates (BRANDplates, pureGradeTM, BRAND GMBH, Wertheim, Germany). Then, the reaction was started with the addition of hMAO-A or hMAO-B.
(§6) Initial velocities were determined spectrophotometrically in a microplate reader (BioTek Synergy HT from BioTek Instruments, Winooski, VT, USA) at 37 °C by measuring the formation of 4-
(§7) The initial velocities, obtained from the linear phase of product formation, were normalized and plotted against the respective inhibitor concentration. IC50 values were obtained from dose-response curves and were expressed as mean ± standard deviation. IC50 values were determined from at least three independent experiments, each performed in triplicate.

[2] = Oxygen radical absorbance capacity (ORAC-FL) assay; conditions: for ORAC-FL Index: relative Trolox equivalent ORAC value
[3] = tested on: differentiated SH-SY5Y cells; assay: Resazurin reduction assay (cytotoxicity); assay type: cell-based, human; conditions: 24 h, concentrations up to 100 µM
Description: For cytotoxicity studies, differentiated SH-SY5Y cells were incubated with increasing concentrations of the test compounds (0.20–100 µM) for 24 h. Controls were treated with culture media containing 0.1% DMSO. Cell viability was estimated using two different methods: resazurin reduction assay and NR uptake assay. […]
days. The cultures were passaged once a week by trypsinization (0.25 % trypsin/1 mM EDTA).
To avoid phenotypic changes, the cells used for all experiments were taken between 19th and 28th passages. Cells were differentiated as described previously by Fernandes et al.. Briefly, SH-SY5Y cells were seeded onto 96-well plates at a density of 25,000 cells/cm2 in cell culture medium with trans-retinoic acid (RA) (final concentration of 10 µM) and incubated for 3 days at 37 °C in a humidified, 5% CO2−95% air atmosphere. The cell culture medium was then removed and replaced with medium supplemented with 12-O-tetradecanoylphorbol-13-acetate (TPA) (final concentration 80 nM), and cells were incubated for 3 days. Stock solutions of RA (10 mM) and TPA (80 µM) were prepared in DMSO.
1.5.3. Cytotoxicity assays
1.5.3.1. Resazurin reduction assay
Resazurin is a non-fluorescent, non-toxic water-soluble dye able to permeate through cell […]
highly fluorescent resorufin [8, 9]. Since the conversion of resazurin into resorufin occurs mostly in mitochondria, the amount of resorufin produced can be used as indicator of metabolic activity. The quantity of resorufin production is proportional to the number of viable cells in culture and can be quantified fluorometrically or colorimetrically.
Resazurin reduction assay was performed as previously described by Fernandes et al..
Briefly, after the 24 h incubation periods with the test compounds, the cell culture medium was removed and replaced with fresh culture medium with resazurin (10 μg/mL) prepared in cell culture medium. Differentiated SH-SY5Y cells were incubated for 2 h at 37 °C in a humidified 5% CO2−95% air atmosphere. Then, the fluorescence was read in a multiwell microplate reader (PowerWave XS from BioTek Instruments, Vermont, US), using an excitation wavelength of 540 nm and an emission wavelength of 590 nm. The results were expressed as the percentage of resazurin reduction relative to that of the control (non-treated) cells [resazurin reduction (% of […]
1.5.3.2. Neutral red uptake assay
The neutral red (NR) uptake assay is based on the ability of viable cells to incorporate the supravital dye NR and retain it inside the lysosomes. NR uptake assay was performed as previously described by Fernandes et al. Briefly, after the 24 h incubation periods with the test compounds, the cell culture medium was removed and NR solution ([…]) in fresh cell culture medium was added. Differentiated SH-SY5Y cells and Caco-2 cells were incubated for 2 h and 1 h, respectively, at 37 °C in a humidified, 5% CO2−95% air atmosphere. Then, the cell culture medium was removed and replaced by ethanol absolute/distilled water (1:1) with 5 % acetic acid to liberate the dye from the viable cells. The absorbance was measured at 540 nm in a […]

[4] = tested on: differentiated SH-SY5Y cells; assay: Neutral red (NR) uptake assay (cytotoxicity); assay type: cell-based, human; conditions: 24 h, increasing concentrations up to 100 µM
Description: To avoid phenotypic changes, the cells used for all experiments were taken between 19th and 28th passages. Cells were differentiated as described previously by Fernandes et al. [6]. Briefly, SH-SY5Y cells were seeded onto 96-well plates at a density of 25,000 cells/cm2 in cell culture medium with trans-retinoic acid (RA) (final concentration of 10 µM) and incubated for 3 days at
The neutral red (NR) uptake assay is based on the ability of viable cells to incorporate the supravital dye NR and retain it inside the lysosomes [11]. NR uptake assay was performed as previously described by Fernandes et al. [12] Briefly, after the 24 h incubation periods with the test compounds, the cell culture medium was removed and NR solution (50 mg/mL) in fresh cell culture medium was added. Differentiated SH-SY5Y cells and Caco-2 cells were incubated for 2
multiwell microplate reader (PowerWave XS from BioTek Instruments). The results were
expressed as the percentage of NR uptake relative to that of the control (non-treated) cells [NR
uptake (% of control)] ± standard error mean (SEM) of at least three independent experiments.
Stock solutions of the test compounds (10 µM) were prepared in DMSO and diluted in

[5] = target: T2, eqBChE (equine butyrylcholinesterase) (Equus caballus, UniProt P81908); parameters: method as in Benfeito et al. [22]; conditions: ref Benfeito et al. [22]; cited from earlier work
T2 construct: butyrylcholinesterase (eqBuChE, E.C. 3.1.1.8, from equine serum); purchased Sigma Aldrich; host or cells: equine serum
T2 sequence (P81908 whole entry): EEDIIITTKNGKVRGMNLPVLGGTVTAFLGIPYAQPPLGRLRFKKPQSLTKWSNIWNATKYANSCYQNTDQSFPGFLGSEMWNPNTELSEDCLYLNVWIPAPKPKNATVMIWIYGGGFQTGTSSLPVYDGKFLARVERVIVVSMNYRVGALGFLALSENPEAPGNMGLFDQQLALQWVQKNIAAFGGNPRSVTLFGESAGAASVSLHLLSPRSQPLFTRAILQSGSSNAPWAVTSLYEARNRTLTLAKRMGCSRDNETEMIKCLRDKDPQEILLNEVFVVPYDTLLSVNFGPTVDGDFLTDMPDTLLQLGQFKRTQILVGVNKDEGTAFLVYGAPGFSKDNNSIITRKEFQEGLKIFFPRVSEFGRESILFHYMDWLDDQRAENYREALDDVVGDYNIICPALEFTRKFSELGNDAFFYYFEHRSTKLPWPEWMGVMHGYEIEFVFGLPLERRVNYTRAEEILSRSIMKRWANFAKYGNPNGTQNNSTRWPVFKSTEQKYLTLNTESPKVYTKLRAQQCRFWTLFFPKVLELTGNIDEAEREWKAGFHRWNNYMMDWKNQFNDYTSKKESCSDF

[6] = parameters: method as in Teixeira et al. [19],[20]; conditions: ref Teixeira et al. [19],[20]; cited from earlier work
[7] = Chromatographic hydrophobicity index by gradient RP-HPLC at pH 2.3
Description: Chromatographic hydrophobicity indexes (CHIs) at pH 2.3 were determined using an experimental protocol described elsewhere [45, 46] and included in the supplementary information.
Evaluation of the chromatographic hydrophobicity index
Chromatographic hydrophobicity indexes (CHIs) values were determined using the
retention times (tR) of samples and a mixture of reference compounds. The data was acquired on
a Shimadzu high-performance liquid chromatograph SPD-M20A system (Shimadzu, Kyoto,
Japan) with a Luna C18 (2) column (Phenomenex, CA, USA) 150×4.6 mm, 5 µm. In CHI
determinations at pH 2.3, mobile phase A was aqueous solution of acetic acid 1 % (v/v) (pH 2.3),
and mobile phase B was acetonitrile. The following gradient program was applied: 1 mL/min
Calibration plots were obtained using a mixture of the following compounds:
paracetamol, theophylline, caffeine, benzimidazole, colchicine, carbamazepine, indole,
propiophenone, butyrophenone, valerophenone, and heptanophenone (Table S1, Figure S2).
hydrophobicity index (CHI) values were calculated as previously described [13, 14].

[8] = target: T3, hMAO-B (Homo sapiens, UniProt P27338); assay: biochemical; parameters: purchased Sigma Aldrich; host or cells: insect cells (BTI-TN-5B1-4), baculovirus
T3 sequence (P27338 1-520): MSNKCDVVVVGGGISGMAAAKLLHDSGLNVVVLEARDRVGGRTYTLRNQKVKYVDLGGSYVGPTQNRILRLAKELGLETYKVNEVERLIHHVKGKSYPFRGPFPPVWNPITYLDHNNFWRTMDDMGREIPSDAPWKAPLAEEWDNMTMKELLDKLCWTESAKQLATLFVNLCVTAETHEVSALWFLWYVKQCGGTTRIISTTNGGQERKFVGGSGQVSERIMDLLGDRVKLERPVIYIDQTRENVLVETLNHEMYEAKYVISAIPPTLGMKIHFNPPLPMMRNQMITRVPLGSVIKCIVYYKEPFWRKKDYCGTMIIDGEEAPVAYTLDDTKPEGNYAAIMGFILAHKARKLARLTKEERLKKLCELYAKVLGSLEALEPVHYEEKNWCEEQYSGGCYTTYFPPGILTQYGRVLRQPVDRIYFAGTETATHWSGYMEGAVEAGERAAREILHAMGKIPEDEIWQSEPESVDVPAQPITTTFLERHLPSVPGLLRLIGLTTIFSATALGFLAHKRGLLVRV
Description: as §1, §2, §3, §4, §5, §6, §7

[9] = target: T4, eeAChE (electric eel acetylcholinesterase) (Electrophorus electricus, UniProt O42275); assay: eeAChE inhibition, Ellman's method; assay type: biochemical
T4 construct: Eel acetylcholinesterase (eeAChE, E.C. 3.1.1.7, from Electrophorus electricus); purchased Sigma Aldrich
T4 sequence (O42275 24-633): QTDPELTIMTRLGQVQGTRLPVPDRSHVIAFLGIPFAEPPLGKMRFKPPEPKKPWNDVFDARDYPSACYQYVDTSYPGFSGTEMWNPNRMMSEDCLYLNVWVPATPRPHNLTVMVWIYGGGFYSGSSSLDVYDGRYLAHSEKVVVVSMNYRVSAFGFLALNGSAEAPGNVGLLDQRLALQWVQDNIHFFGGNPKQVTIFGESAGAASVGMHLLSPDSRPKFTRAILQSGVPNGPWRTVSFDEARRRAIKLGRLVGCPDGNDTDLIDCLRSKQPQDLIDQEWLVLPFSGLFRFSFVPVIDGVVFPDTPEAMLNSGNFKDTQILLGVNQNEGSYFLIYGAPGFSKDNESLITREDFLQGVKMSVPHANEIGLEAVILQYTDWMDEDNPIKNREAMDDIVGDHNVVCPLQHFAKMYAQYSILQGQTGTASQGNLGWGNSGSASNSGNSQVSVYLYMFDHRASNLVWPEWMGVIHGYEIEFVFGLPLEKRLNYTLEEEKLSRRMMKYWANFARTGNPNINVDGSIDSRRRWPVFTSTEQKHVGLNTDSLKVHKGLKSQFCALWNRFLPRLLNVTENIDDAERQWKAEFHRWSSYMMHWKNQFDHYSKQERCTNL
Description: (§8) The eeAChE and eqBChE inhibitory activities of the compounds under study were determined following the Ellman’s method [32, 33]
(§9) Substrate solutions (ATCI or BCTI) were prepared in deionized water (conductivity ˂ 0.1 µS.cm-
(§10) Evaluation of eel acetylcholinesterase and equine butyrylcholinesterase inhibitory
(§11) The eeAChE and eqBChE inhibitory activities of the compounds under study were evaluated following the Ellman’s method [1, 2]. Briefly, a mixture containing sodium phosphate buffer, enzyme (final concentration: eeAChE 0.05 U/mL and eeBChE 0.05 U/mL), DTNB (final concentration: 400 µM) and the test compounds/reference inhibitors were preincubated for 5 minutes at 30 °C in a 96-well microplate (BRANDplates, pureGradeTM, BRAND GMBH, Wertheim, Germany). In control experiments, sodium phosphate buffer was used instead of the
(§12) ºC in a microplate reader (BioTek Synergy HT from BioTek Instruments, Winooski, VT, USA).
(§13) The rates of the substrate enzymatic hydrolysis were determined, normalized and plotted against the respective inhibitor concentration. IC50 values were obtained from the dose-response curves
(§14) and were expressed as mean ± standard deviation. IC50 values were determined in at least three
(§15) independent experiments, each performed at least in triplicates.

[10] = target: T2, eqBChE (equine butyrylcholinesterase); assay: biochemical
Description: as §8, §9, §10, §11, §12, §13, §14, §15

[11] = parameters: method as in Camurri et al. [13]; conditions: standard mixture for calibration; ref Camurri et al. [13]; cited from earlier work
[12] = target: T1, hMAO-A; parameters: method as in Chavarria et al. [29]; conditions: read-out: IC50 hMAO-A; ref Chavarria et al. [29]; cited from earlier work
[13] = target: T3, hMAO-B; conditions: read-out: IC50 hMAO-B; ref Chavarria et al. [29]; cited from earlier work
[14] = tested on: differentiated SH-SY5Y cells; conditions: at concentrations up to 50 µM; ref [58]; cited from earlier work

For `O=C(/C=C/c1ccc(O)c(O)c1)NCCCCCC[P+](c1ccccc1)(c1ccccc1)c1ccccc1` [AntiOXCIN2, reference compound], the IC50 [1] was greater than 10 µM, the inhibition at 10 µM [1] was less than 50% and the “ORAC-FL Index” value [2] was 2.8 ± 0.1. The “effect on resazurin reduction” value [3] was “did not markedly affect”, the “effect on NR uptake” value [4] was “did not markedly affect” and the IC50 [5] was 0.124 ± 0.007 µM. For the same compound, the “SI (1): eqBChE selectivity index = IC50(eeAChE)/IC50(eqBChE)” value [5] was 51 ^d, the “Ep (redox potential)” value [6] was 166 mV and 166 ^a mV and the CHI [7] was 37.9. For the same compound, the IC50 [8] was greater than 10 µM and the inhibition at 10 µM [8] was less than 50%.
For `O=C(/C=C/c1ccc(O)c(O)c1)NCCCCCCCC[P+](c1ccccc1)(c1ccccc1)c1ccccc1` [AntiOXCIN3, reference compound], the IC50 [9] was 5.08 ± 0.22 µM, the “SI (1): eqBChE selectivity index = IC50(eeAChE)/IC50(eqBChE)” value [10] was 16 and the IC50 ([10]; read-out: IC50 eqBChE) was 0.325 ± 0.09 µM. The IC50 [1] was greater than 10 µM, the inhibition at 10 µM [1] was less than 50% and the “ORAC-FL Index” value [2] was 2.6 ± 0.1. The “effect on resazurin reduction” value [3] was “did not markedly affect”, the “effect on NR uptake” value [4] was “did not markedly affect” and the “Ep (redox potential)” value [6] was 164 mV and 164 ^a mV. The CHI [7] was 41.4, the IC50 [8] was greater than 10 µM and the inhibition at 10 µM [8] was less than 50%.
In the case of `c1ccc2[nH]cnc2c1` [Benzimidazole], the “CHI0 pH 2.3” value [11] is given as 6.30.
In the case of `CCCC(=O)c1ccccc1` [Butyrophenone], the “CHI0 pH 2.3” value [11] is given as 87.3.
In the case of `Cn1c(=O)c2c(ncn2C)n(C)c1=O` [Caffeine], the “CHI0 pH 2.3” value [11] is given as 23.41.
For `NC(=O)N1c2ccccc2C=Cc2ccccc21` [Carbamazepine], the “CHI0 pH 2.3” value [11] is listed as 60.42.
In the case of `COc1cc2c(c(OC)c1OC)-c1ccc(OC)c(=O)cc1[C@@H](NC(C)=O)CC2` [Colchicine], the “CHI0 pH 2.3” value [11] is listed as 43.9.
In the case of `O=C(C=CC=Cc1ccc2c(c1)OCO2)N1CCCCC1` [Compound 1, 1-[5-(1,3-benzodioxol-5-yl)-1-oxo-2,4-pentadienyl]piperidine], the “ROO• radical scavenging” value ([2]; ORAC-FL) is listed as “unable to scavenge ROO• radicals”, the IC50 [12] is listed as greater than 10 µM and the IC50 [13] is listed as 1.05 ± 0.08 µM. For the same compound, the cytotoxic effects [14] was “did not exhibit cytotoxic effects” and the CHI [7] was 73.4.
For `CCCCCCC(=O)c1ccccc1` [Heptanophenone], the “CHI0 pH 2.3” value [11] is given as 112.1.
For `c1ccc2[nH]ccc2c1` [Indole], the “CHI0 pH 2.3” value [11] is listed as 72.1.
For `CC(=O)Nc1ccc(O)cc1` [Paracetamol], the “CHI0 pH 2.3” value [11] is given as 18.77.
For `CCC(=O)c1ccccc1` [Propiophenone], the “CHI0 pH 2.3” value [11] is listed as 77.4.
For `Cn1c(=O)c2[nH]cnc2n(C)c1=O` [Theophyline], the “CHI0 pH 2.3” value [11] is given as 17.9.
For `CCCCC(=O)c1ccccc1` [Valerophenone], the “CHI0 pH 2.3” value [11] is given as 96.4.
